Assay results published in EPA's CvTdb concentration-time database.

Key:
[1] = system: Mouse; assay: concentration in plasma after dosing; settings: 2 h; dosed: 2-Hydroxy-4-methoxybenzophenone; 250 mg/kg; oral; Female; B6C3F1
[2] = system: Mouse; assay: concentration in plasma after dosing; settings: 2 h; dosed: 2-Hydroxy-4-methoxybenzophenone; 500 mg/kg; oral; Female; B6C3F1
[3] = system: Rat; assay: concentration in plasma after dosing; settings: dosed: 2-Hydroxy-4-methoxybenzophenone, 250 mg/kg, oral, Female, F344
[4] = system: Rat; assay: concentration in plasma after dosing; settings: dosed: 2-Hydroxy-4-methoxybenzophenone, 250 mg/kg, oral, Female, F344; remark: listed apart in the source
[5] = system: Rat; assay: concentration in plasma after dosing; settings: dosed: 2-Hydroxy-4-methoxybenzophenone, 500 mg/kg, oral, Male, F344
[6] = system: Rat; assay: concentration in plasma after dosing; settings: 4 h; dosed: 2-Hydroxy-4-methoxybenzophenone; 500 mg/kg; oral; Male; F344
[7] = system: Mouse; assay: concentration in plasma after dosing; settings: dosed: 2-Hydroxy-4-methoxybenzophenone, 100 mg/kg, oral, Male, B6C3F1
[8] = system: Rat; assay: concentration in plasma after dosing; settings: 5 min; dosed: Nitrite; 80 mg/kg; oral; Female; F344
[9] = system: Rat; assay: concentration in plasma after dosing; settings: 10 min; dosed: Nitrite; 80 mg/kg; oral; Female; F344
[10] = system: Rat; assay: concentration in plasma after dosing; settings: dosed: Nitrite, 80 mg/kg, oral, Female, F344
[11] = system: Rat; assay: concentration in plasma after dosing; settings: 0.5 h; dosed: Nitrite; 40 mg/kg; oral; Female; F344
[12] = system: Rat; assay: concentration in plasma after dosing; settings: 10 min; dosed: Nitrite; 80 mg/kg; oral; Female; F344; remark: listed apart in the source
[13] = system: Rat; assay: concentration in plasma after dosing; settings: dosed: Nitrite, 80 mg/kg, oral, Female, F344; remark: listed apart in the source
[14] = system: Rat; assay: concentration in kidney after dosing; settings: 3 h; dosed: Fluorotelomer alcohol 8+2; 80 mg/kg; oral; Female; Harlan Sprague Dawley
[15] = system: Rat; assay: concentration in kidney after dosing; settings: 3 h; dosed: Perfluorooctanoic acid; 80 mg/kg; oral; Female; Harlan Sprague Dawley
[16] = system: Rat; assay: concentration in kidney after dosing; settings: 3 h; dosed: Fluorotelomer alcohol 8+2; 24 mg/kg; oral; Male; Harlan Sprague Dawley
[17] = system: Rat; assay: concentration in liver after dosing; settings: 48 h; dosed: Perfluorooctanoic acid; 80 mg/kg; oral; Female; Harlan Sprague Dawley
[18] = system: Rat; assay: concentration in liver after dosing; settings: 1200 h; dosed: Perfluorooctanoic acid; 12 mg/kg; oral; Male; Harlan Sprague Dawley
[19] = system: Rat; assay: concentration in kidney after dosing; settings: 1 h; dosed: Fluorotelomer alcohol 8+2; 24 mg/kg; oral; Male; Harlan Sprague Dawley
[20] = system: Rat; assay: concentration in plasma after dosing; settings: 5 min; dosed: 678-39-7; 12 mg/kg; iv; Male; F344
[21] = system: Rat; assay: concentration in plasma after dosing; settings: dosed: 678-39-7, 40 mg/kg, iv, Male, F344
[22] = system: Rat; assay: concentration in kidney after dosing; settings: 0.5 h; dosed: Fluorotelomer alcohol 8+2; 80 mg/kg; oral; Female; Harlan Sprague Dawley
[23] = system: Rat; assay: concentration in kidney after dosing; settings: 3 h; dosed: Perfluorooctanoic acid; 80 mg/kg; oral; Female; Harlan Sprague Dawley; remark: listed apart in the source
[24] = system: Rat; assay: concentration in liver after dosing; settings: 3 h; dosed: Potassium Perfluorobutane Sulfonate; 20 mg/kg; oral; Male; Harlan Sprague Dawley
[25] = system: Rat; assay: concentration in liver after dosing; settings: 3 h; dosed: Potassium Perfluorobutane Sulfonate; 20 mg/kg; oral; Female; Harlan Sprague Dawley
[26] = system: Rat; assay: concentration in plasma after dosing; settings: 1.5 h; dosed: Potassium Perfluorobutane Sulfonate; 4 mg/kg; oral; Male; Harlan Sprague Dawley
[27] = system: Rat; assay: concentration in plasma after dosing; settings: 1.5 h; dosed: Potassium Perfluorobutane Sulfonate; 4 mg/kg; iv; Male; F344
[28] = system: Rat; assay: concentration in liver after dosing; settings: 0.5 h; dosed: Potassium Perfluorobutane Sulfonate; 20 mg/kg; oral; Male; Harlan Sprague Dawley
[29] = system: Rat; assay: concentration in plasma after dosing; settings: dosed: Potassium Perfluorobutane Sulfonate, 4 mg/kg, iv, Male, F344
[30] = system: Rat; assay: concentration in brain after dosing; settings: 0.5 h; dosed: Potassium Perfluorobutane Sulfonate; 20 mg/kg; oral; Male; Harlan Sprague Dawley
[31] = system: Rat; assay: concentration in kidney after dosing; settings: 1 h; dosed: Potassium Perfluorobutane Sulfonate; 20 mg/kg; oral; Male; Harlan Sprague Dawley
[32] = system: rat; settings: dosed: benzo[a]pyrene, 1 mg/kg, iv, male, Sprague Dawley
[33] = system: rat; settings: dosed: benzo[a]pyrene, 1 mg/kg, iv, male, Sprague Dawley; remark: listed apart in the source

COc1ccc(C(=O)c2ccccc2)c(O)c1 [2-Hydroxy-4-methoxybenzophenone]
Settings | concentration in plasma [ng/mL]
[1] | 832
[2] | 4310
[6] | 345

Settings | concentration in plasma [ng/mL]
[3], 3 h | 81.6
[3], 10 min | 13
[4], 0.25 h | 56.9
[4], 4 h | 26.2
[5], 10 h | 80.4
[5], 10 min | 113
[7], 0.25 h | 113
[7], 2 h | 24.1
[7], 2.5 min | 84.8
[7], 3 h | 18.6
[7], 10 min | 27.8

O=N[O-] [Nitrite]
Settings | concentration in plasma [ng/mL]
[8] | 18700
[9] | 15400
[11] | 11600
[12] | 31800

concentration in plasma [ng/mL]
Settings | 0.5 h | 4 h | 6 h | 10 min
[10] | – | – | 1700 | 10800
[13] | 5200 | 2300 | – | –

O=C(O)C(F)(F)C(F)(F)C(F)(F)C(F)(F)C(F)(F)C(F)(F)C(F)(F)F [Perfluorooctanoic acid]
Settings | concentration in kidney [ng/g] | concentration in liver [ng/g] | concentration in plasma [ng/mL]
[14] | 2070 | – | –
[15] | 321000 | – | –
[16] | 272 | – | –
[17] | – | 616 | –
[18] | – | 4980 | –
[19] | 175 | – | –
[20] | – | – | 35.2
[22] | 360 | – | –
[23] | 49700 | – | –

[21]
Settings | concentration in plasma [ng/mL]
0.5 h | 1400
9 h | 716

O=S(=O)([O-])C(F)(F)C(F)(F)C(F)(F)C(F)(F)F.[K+] [Potassium Perfluorobutane Sulfonate]
Settings | concentration in brain [ng/g] | concentration in kidney [ng/g] | concentration in liver [ng/g] | concentration in plasma [ng/mL]
[24] | – | – | 80000 | –
[25] | – | – | 5050 | –
[26] | – | – | – | 13500
[27] | – | – | – | 1850
[28] | – | – | 62000 | –
[30] | 518 | – | – | –
[31] | – | 28600 | – | –

[29]
Settings | concentration in plasma [ng/mL]
0.25 h | 27200
6 h | 4170

c1ccc2c(c1)cc1ccc3cccc4ccc2c1c34 [benzo[a]pyrene]
Settings | amount in bile after dosing, 1.003 h [ng] | amount in bile after dosing, 3.009 h [ng] | amount in bile after dosing, 5.994 h [ng] | amount in bile after dosing, 24 h [ng] | amount in urine after dosing, 2.991 h [ng] | amount in urine after dosing, 6.006 h [ng] | amount in urine after dosing, 24 h [ng]
[32] | 7.16 | 20.1 | 22.9 | 26.4 | – | – | –
[33] | – | – | – | – | 1.11 | 1.15 | 1.15
